# Like-named read-outs stand apart in the source and are kept apart here.
# Experiments:
# [1] = cutaneous [^3H]-4-hydroxy tamoxifen delivery in breast cancer patients: radioactivity in breast tissue, blood, urine; settings: for share of radioactivity in blood: 24 hours after cutaneous 4-hydroxy tamoxifen
# Protocol: (§1) The patients received [^3H]-labeled drug applied directly on the affected breasts at specified intervals ranging from 12 hours to 7 days before surgery to excise diseased tissue. Breast tissue from three regions: the tumor, tissue immediately surrounding the tumor, and normal tissue, was excised and immediately frozen in liquid nitrogen. Additionally, plasma and urine samples were obtained at scheduled intervals and frozen until analysis.
# [2] = topical application
# [3] = human, in vivo; cited from earlier work
# [4] = human, in vivo
# Protocol: as §1
# estrone sulphatase = target: T1, estrone sulphatase (Homo sapiens, UniProt P08842); settings: mammary cancer cell lines; cited from earlier work
# T1 construct: estrone sulphatase activity in mammary cancer cell lines; endogenous in cells
# T1 sequence (P08842 22-583): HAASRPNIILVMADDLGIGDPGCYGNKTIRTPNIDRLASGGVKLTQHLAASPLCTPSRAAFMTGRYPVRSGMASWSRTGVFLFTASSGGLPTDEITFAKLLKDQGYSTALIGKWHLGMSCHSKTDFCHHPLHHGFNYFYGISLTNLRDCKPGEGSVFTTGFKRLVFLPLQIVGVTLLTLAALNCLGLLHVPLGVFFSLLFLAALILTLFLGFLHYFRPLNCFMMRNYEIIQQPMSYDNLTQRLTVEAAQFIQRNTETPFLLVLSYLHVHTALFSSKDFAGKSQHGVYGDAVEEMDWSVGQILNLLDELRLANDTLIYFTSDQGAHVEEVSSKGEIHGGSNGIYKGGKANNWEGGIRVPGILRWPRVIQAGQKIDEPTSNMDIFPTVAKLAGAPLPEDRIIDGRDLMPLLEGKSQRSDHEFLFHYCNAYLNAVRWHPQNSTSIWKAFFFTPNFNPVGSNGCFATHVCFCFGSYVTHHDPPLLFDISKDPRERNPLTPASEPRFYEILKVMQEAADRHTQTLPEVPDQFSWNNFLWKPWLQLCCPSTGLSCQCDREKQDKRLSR
# [5] = cited from earlier work
# [6] = pharmacokinetics of topically applied 4-hydroxy tamoxifen gel in healthy premenopausal women; type: in vivo, human; settings: last administration, day 25 of second cycle; for t1/2: range
# Protocol: Each participant applied the gel daily for the duration of two menstrual cycles.
# At the end of a menstrual cycle, each patient received a single dose, after which serial blood samples were collected at 0, 0.5, 1, 1.5, 2, 3, 4, 6, 12, 18, 24, 36, 48, and 72 hours.
# On the first day of the following menstruation, treatment, which consisted of daily application of the gel over two menstrual cycles, began. Blood samples were collected 24 hours following the morning application of gel on days 7, 20 and 25 of the first and second cycles. On the last day of administration, day 25 of the second menstrual cycle, serial blood samples were collected prior to application and at 0.5, 1, 1.5, 2, 3, 4, 6, 12, 18, 24, 36, 48, and 72 hours after application of the gel.
# [7] = Group 2 (0.5 mg/day gel) on the seventh day; Group 1 (oral tamoxifen 20 mg/day) on the fifth day; cited from earlier work
# [8] = tested on: p53(−) normal human mammary epithelial cells; settings: cited from earlier work
# keloid fibroblast = settings: in vitro, cited from earlier work
# TGF-β1 = settings: cited from earlier work
# [9] = 12 hr after cutaneous Z-[^3H]-4-hydroxy tamoxifen to the affected breast
# [10] = 24 hr after cutaneous Z-[^3H]-4-hydroxy tamoxifen to the affected breast
# [11] = 36 hr after cutaneous Z-[^3H]-4-hydroxy tamoxifen to the affected breast
# [12] = Day 4 after cutaneous Z-[^3H]-4-hydroxy tamoxifen to the affected breast
# [13] = Day 7 after cutaneous Z-[^3H]-4-hydroxy tamoxifen to the affected breast
compound,measurement,setting,value
"CC/C(=C(/c1ccc(O)cc1)c1ccc(OCCN(C)C)cc1)c1ccccc1 (single isomer, unassigned) [E isomer]",percentage of isomer in breast tissue radioactivity,[1]; day 7 after cutaneous Z-[^3H]-4-hydroxy tamoxifen,33%
"CCC(=C(c1ccc(O)cc1)c1ccc(OCCN(C)C)cc1)c1ccccc1 [4-hydroxy tamoxifen, 1-[4-(2-N-dimethylaminoethoxy)phenyl]-1-(4-hydroxyphenyl)-2-phenylbut-1-ene]",systemic effects,[2],no detectable laboratory or clinical evidence of systemic effects
same,radioactivity in excised tissue and normal breast tissue surrounding the tumor,[3],contained radioactivity
same,metabolism in intracellular sites of breast tissue,[4],remained unmetabolized except for limited isomerization from the Z to the E form
same,metabolites in the urine,[4],"progressive increase of metabolites, mostly N-desmethyl-4-hydroxy tamoxifen and bisphenol"
same,radioactivity administered that showed in the blood,[4],0.5%
same,share of radioactivity in blood,[4],68%
same,subcellular distribution in breast tissue,[4],concentrated predominantly in the cytosolic and nuclear fractions of breast tissue
same,time of plateau of radioactivity in blood,[4],4 to 6 days
same,inhibitory effect on estrone sulphatase activity,estrone sulphatase,significant inhibitory effect
same,rat liver carcinogenicity,[5]; in vivo,not
same,AUC0-24,"[6]; 0.5 mg/day, 20 mg/100 g gel",0.2563 ± 0.2053 ng·h/mL
same,Cav = AUC0-24/24,"[6]; 0.5 mg/day, 20 mg/100 g gel",0.0107 ± 0.0085 ng/mL
same,Cmax,"[6]; 0.5 mg/day, 20 mg/100 g gel",0.017 ± 0.0085 ng/mL
same,tmax,"[6]; 0.5 mg/day, 20 mg/100 g gel",40 ± 81 h
same,AUC0-24,"[6]; 1 mg/day, 20 mg/100 g gel",0.3009 ± 0.1908 ng·h/mL
same,Cav = AUC0-24/24,"[6]; 1 mg/day, 20 mg/100 g gel",0.0125 ± 0.0079 ng/mL
same,Cmax,"[6]; 1 mg/day, 20 mg/100 g gel",0.021 ± 0.014 ng/mL
same,tmax,"[6]; 1 mg/day, 20 mg/100 g gel",24 ± 18 h
same,AUC0-24,"[6]; 1 mg/day, 57 mg/100 g gel",0.619 ± 0.466 ng·h/mL
same,Cav = AUC0-24/24,"[6]; 1 mg/day, 57 mg/100 g gel",0.0258 ± 0.0194 ng/mL
same,Cmax,"[6]; 1 mg/day, 57 mg/100 g gel",0.0351 ± 0.0224 ng/mL
same,tmax,"[6]; 1 mg/day, 57 mg/100 g gel",12.8 ± 14.9 h
same,t1/2,"[6]; 1 mg/day, 57 mg/100 g gel",(58-118) hr
same,AUC0-24,"[6]; 2 mg/day, 57 mg/100 g gel",0.998 ± 0.653 ng·h/mL
same,Cav = AUC0-24/24,"[6]; 2 mg/day, 57 mg/100 g gel",0.0416 ± 0.0272 ng/mL
same,Cmax,"[6]; 2 mg/day, 57 mg/100 g gel",0.0516 ± 0.0317 ng/mL
same,tmax,"[6]; 2 mg/day, 57 mg/100 g gel",11.8 ± 12.3 h
same,t1/2,"[6]; 2 mg/day, 57 mg/100 g gel",(49-101) hr
CC(C)(c1ccc(O)cc1)c1ccc(O)cc1 [Bisphenol],% Metabolites in Breast Tissue,[1]; [9],1%
same,share of radioactivity in blood,[1],11%
same,% Metabolites in Breast Tissue,[1]; [10],2%
same,% Metabolites in Breast Tissue,[1]; [11],3%
same,% Metabolites in Breast Tissue,[1]; [12],8%
same,% Metabolites in Breast Tissue,[1]; [13],8%
CC/C(=C(\c1ccc(O)cc1)c1ccc(OCCNC)cc1)c1ccccc1 [N-Desmethyl-4-Hydroxy Tamoxifen],% Metabolites in Breast Tissue,[1]; [9],2%
same,share of radioactivity in blood,[1],18%
same,% Metabolites in Breast Tissue,[1]; [10],4%
same,% Metabolites in Breast Tissue,[1]; [11],14%
same,% Metabolites in Breast Tissue,[1]; [12],20%
same,% Metabolites in Breast Tissue,[1]; [13],16%
CC/C(=C(\c1ccc(O)cc1)c1ccc(OCCN(C)C)cc1)c1ccccc1 [Z-4-hydroxy tamoxifen],percentage of isomer in breast tissue radioactivity,[4],32%
CC/C(=C(\c1ccccc1)c1ccc(OCCN(C)C)cc1)c1ccccc1 [tamoxifen],side effects reported by one person of the group,[7],hot flashes and mild vaginitis
same,initiation of apoptosis,[8],initiates apoptosis
same,inhibitory effect on estrone sulphatase activity,estrone sulphatase,little or no effect
same,rat liver carcinogenicity,[5],potent rat liver carcinogen
same,time of plateau of radioactivity in blood,[1]; cutaneous [^3H]-labeled drug,2 days
same,retention in the breast,"[1]; cutaneous [^3H]-labeled drug, 80 μCi",shorter and far weaker
same,collagen production,keloid fibroblast; keloid fibroblasts,decreases collagen production
same,keloid fibroblast proliferation,keloid fibroblast,inhibits keloid fibroblast proliferation
same,TGF-β1 expression,TGF-β1,downregulating TGF-β1 expression

# — patent US7767717B2 (priority 2003, dated 2010)
